One assay concerns the target T1, PI3K-delta (Homo sapiens, UniProt O00329).
T1 construct: purchased Upstate; Millipore 14-604
The experiment in a line: HTRF PI3K biochemical assay, delta isoform. The note with it: form screened (neutral or TFA salt) given, read-out: PI3Kdelta IC50.

In the next assay the target is T2, PI3K-alpha (Homo sapiens, UniProt P42336).
T2 construct: purchased Upstate; Millipore 14-602
The experiment in a line: HTRF PI3K biochemical assay, alpha isoform. The conditions noted are these: ratio PI3K-alpha IC50 value / PI3K-delta IC50 value.

The structures appear in SMILES notation.

T1 sequence (O00329 whole entry): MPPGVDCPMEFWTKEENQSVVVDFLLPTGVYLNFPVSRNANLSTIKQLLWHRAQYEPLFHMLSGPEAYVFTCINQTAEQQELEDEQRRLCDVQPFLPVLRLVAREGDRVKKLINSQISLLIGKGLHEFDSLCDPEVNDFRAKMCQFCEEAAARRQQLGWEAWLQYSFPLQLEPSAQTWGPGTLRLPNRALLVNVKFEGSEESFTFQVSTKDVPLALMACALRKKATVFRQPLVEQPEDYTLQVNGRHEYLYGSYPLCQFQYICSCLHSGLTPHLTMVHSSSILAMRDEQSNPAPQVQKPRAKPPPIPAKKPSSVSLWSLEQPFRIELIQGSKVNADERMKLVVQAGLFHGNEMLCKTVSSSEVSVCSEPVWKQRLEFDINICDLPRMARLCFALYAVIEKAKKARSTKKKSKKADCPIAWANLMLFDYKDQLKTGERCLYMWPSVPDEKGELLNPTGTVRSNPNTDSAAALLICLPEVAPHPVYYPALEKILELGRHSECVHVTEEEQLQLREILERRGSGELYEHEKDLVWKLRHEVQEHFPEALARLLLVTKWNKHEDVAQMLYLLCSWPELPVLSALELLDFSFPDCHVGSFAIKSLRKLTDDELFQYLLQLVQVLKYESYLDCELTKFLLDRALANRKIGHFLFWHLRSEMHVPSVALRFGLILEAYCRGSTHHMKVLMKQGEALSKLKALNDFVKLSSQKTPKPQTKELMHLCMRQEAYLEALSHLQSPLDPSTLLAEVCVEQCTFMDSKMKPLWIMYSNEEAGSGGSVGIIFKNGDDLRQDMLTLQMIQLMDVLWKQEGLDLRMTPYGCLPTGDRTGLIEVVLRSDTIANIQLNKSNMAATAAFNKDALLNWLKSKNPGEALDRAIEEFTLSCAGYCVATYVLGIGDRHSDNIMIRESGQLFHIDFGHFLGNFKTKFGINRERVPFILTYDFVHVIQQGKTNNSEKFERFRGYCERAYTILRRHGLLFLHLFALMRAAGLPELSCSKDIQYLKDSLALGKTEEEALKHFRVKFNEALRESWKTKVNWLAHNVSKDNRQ
T1 sequence (P27986 whole entry partner): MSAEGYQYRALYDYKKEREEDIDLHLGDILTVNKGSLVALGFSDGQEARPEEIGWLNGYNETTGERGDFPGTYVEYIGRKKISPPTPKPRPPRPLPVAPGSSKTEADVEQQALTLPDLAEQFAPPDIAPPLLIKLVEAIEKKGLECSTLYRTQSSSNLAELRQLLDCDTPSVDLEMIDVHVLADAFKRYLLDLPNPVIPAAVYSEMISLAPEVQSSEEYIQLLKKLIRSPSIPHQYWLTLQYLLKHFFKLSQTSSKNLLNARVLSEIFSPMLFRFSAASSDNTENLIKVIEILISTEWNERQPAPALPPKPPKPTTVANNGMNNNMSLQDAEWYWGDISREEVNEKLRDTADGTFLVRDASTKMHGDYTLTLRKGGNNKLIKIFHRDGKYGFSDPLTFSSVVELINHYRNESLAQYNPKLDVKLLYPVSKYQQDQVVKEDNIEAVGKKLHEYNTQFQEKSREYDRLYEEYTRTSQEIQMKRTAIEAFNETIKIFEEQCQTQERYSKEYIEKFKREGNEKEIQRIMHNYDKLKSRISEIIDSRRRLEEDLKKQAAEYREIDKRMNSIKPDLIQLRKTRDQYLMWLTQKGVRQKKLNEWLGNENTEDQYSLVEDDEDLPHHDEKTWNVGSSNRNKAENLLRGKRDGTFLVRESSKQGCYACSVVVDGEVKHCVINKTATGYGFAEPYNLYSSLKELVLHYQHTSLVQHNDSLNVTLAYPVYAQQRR
T2 sequence (P42336 whole entry): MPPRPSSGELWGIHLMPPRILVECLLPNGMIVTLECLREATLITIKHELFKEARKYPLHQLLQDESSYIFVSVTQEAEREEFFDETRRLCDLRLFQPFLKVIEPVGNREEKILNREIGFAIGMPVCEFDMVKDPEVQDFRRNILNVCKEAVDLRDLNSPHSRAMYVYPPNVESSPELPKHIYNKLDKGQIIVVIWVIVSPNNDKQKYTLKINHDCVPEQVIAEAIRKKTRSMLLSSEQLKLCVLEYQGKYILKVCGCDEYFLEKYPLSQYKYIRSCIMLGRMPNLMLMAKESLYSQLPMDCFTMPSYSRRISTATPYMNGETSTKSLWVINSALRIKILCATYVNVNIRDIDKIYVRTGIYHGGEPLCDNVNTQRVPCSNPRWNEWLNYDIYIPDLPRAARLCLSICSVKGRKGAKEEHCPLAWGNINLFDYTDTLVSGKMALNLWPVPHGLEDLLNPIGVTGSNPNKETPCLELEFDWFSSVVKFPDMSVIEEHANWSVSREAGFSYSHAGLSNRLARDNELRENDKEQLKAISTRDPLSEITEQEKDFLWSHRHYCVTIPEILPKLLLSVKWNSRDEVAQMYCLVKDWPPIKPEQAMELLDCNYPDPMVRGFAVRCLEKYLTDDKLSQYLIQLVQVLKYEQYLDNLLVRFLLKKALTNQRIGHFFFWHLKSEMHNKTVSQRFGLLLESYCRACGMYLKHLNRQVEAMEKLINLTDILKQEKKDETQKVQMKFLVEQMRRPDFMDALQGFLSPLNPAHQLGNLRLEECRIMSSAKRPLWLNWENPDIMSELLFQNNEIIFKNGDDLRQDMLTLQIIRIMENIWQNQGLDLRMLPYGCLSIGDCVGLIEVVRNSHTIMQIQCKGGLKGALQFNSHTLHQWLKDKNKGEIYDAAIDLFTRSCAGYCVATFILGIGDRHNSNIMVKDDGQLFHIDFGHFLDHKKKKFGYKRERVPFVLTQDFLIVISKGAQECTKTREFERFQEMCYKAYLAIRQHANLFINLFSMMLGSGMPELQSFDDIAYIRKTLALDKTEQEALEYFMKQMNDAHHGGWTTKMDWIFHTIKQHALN
T2 sequence (P27986 whole entry partner): as the sequence (P27986 whole entry partner) above

`CCn1c(-c2cnc(C)nc2)nc2c(N[C@H]3CCN(C(=O)C4(O)CC4)C3)ncnc21` [Compound 2-66, 1-{[(3S)-3-{[9-ethyl-8-(2-methylpyrimidin-5-yl)-9H-purin-6-yl]amino}pyrrolidin-1-yl]carbonyl}cyclopropanol]: the IC50 on PI3K-delta was found to be 10 nM. Also, the “Selectivity versus PI3Kalpha” value on PI3K-alpha is recorded as over 10.
Take `CCn1c(-c2cnc(C)nc2)nc2c(N[C@H]3CCN(C(=O)C4CCNCC4)C3)ncnc21` [Compound 2-78, 9-ethyl-8-(2-methylpyrimidin-5-yl)-N-[(3S)-1-(piperidin-4-ylcarbonyl)pyrrolidin-3-yl]-9H-purin-6-amine]: the IC50 at PI3K-delta turned out to be 4.6 nM. For the same molecule, the “Selectivity versus PI3Kalpha” value at PI3K-alpha is given as over 10.
On the same counts, the results for `CCn1c(-c2cnc(C)nc2)nc2c(N[C@H]3CCN(C(=O)[C@H]4CCCN4C)C3)ncnc21` [Compound 2-42, 9-ethyl-N-[(3S)-1-(1-methyl-D-prolyl)pyrrolidin-3-yl]-8-(2-methylpyrimidin-5-yl)-9H-purin-6-amine] are 29 nM and over 10.
Consider `CCC(=O)N1CC[C@H](Nc2ncnc3c2nc(-c2ccc(OC)nc2)n3C)C1` [Compound 3-31, 8-(6-methoxypyridin-3-yl)-9-methyl-N-[(3S)-1-propanoylpyrrolidin-3-yl]-9H-purin-6-amine], for which, on PI3K-delta, the IC50 was 4 nM. For the same molecule, the “Selectivity versus PI3Kalpha” value at PI3K-alpha is listed as over 10.
For the molecule `COc1ncc(-c2nc3c(N[C@H]4CCN(C(=O)OC(C)(C)C)C4)ncnc3n2C)cc1C` [Compound 1-8, (S)-tert-butyl 3-((8-(6-methoxy-5-methylpyridin-3-yl)-9-methyl-9H-purin-6-yl)amino)pyrrolidine-1-carboxylate], at PI3K-delta, the IC50 stood at 1.7 nM. Besides, on PI3K-alpha, the “Selectivity versus PI3Kalpha” value is over 10.
The matching figures for `CCn1c(-c2cnc(C)nc2)nc2c(N[C@H]3CCN(C(=O)C4CCOC(C)(C)C4)C3)ncnc21` (mixture of isomers) [Compound 2-20, ((S and R)-2,2-dimethyltetrahydro-2H-pyran-4-yl)((S)-3-((9-ethyl-8-(2-methylpyrimidin-5-yl)-9H-purin-6-yl)amino)pyrrolidin-1-yl)methanone]: 1.4 nM and over 10.
On the same counts, the results for `CCC(=O)N1CC[C@H](Nc2ncnc3c2nc(-c2cnc(C(C)(C)C)s2)n3C)C1` [Compound 2-14, (S)-1-(3-((8-(2-(tert-butyl)thiazol-5-yl)-9-methyl-9H-purin-6-yl)amino)pyrrolidin-1-yl)propan-1-one] are 1.2 nM and over 10.
On the same counts, the results for `CCn1c(-c2cnc(C)nc2)nc2c(N[C@H]3CCN(C(=O)NC(C)(C)CC(C)(C)C)C3)ncnc21` [Compound 12-25, (3S)-3-{[9-ethyl-8-(2-methylpyrimidin-5-yl)-9H-purin-6-yl]amino}-N-(1,1,3,3-tetramethylbutyl)pyrrolidine-1-carboxamide] are 1.4 nM and over 10.
As for `CCn1c(-c2cnc(C)nc2)nc2c(N[C@H]3CCN(C(=O)N4CCC4C)C3)ncnc21` (mixture of isomers) [Compound 12-3, 9-ethyl-N-{(3S)-1-[((S and R)-2-methylazetidin-1-yl)carbonyl]pyrrolidin-3-yl}-8-(2-methylpyrimidin-5-yl)-9H-purin-6-amine], at PI3K-delta, the IC50 came out at 1.6 nM. Also, the “Selectivity versus PI3Kalpha” value at PI3K-alpha is over 10.
On to `CCn1c(-c2cnc(C)nc2)nc2c(NC3CN(C(C)C)CC34CC4)ncnc21` (stereo not shown) [Compound 10-3, (R AND S)-9-ethyl-N-[5-(1-methylethyl)-5-azaspiro[2.4]hept-7-yl]-8-(2-methylpyrimidin-5-yl)-9H-purin-6-amine], for which the IC50 on PI3K-delta amounted to 96 nM. Further, the “Selectivity versus PI3Kalpha” value on PI3K-alpha is recorded as over 10.
The matching figures for `CCn1c(-c2ccc(C(F)(F)F)nc2)nc2c(N[C@H]3CCN(C(=O)C4CCCO4)C3)ncnc21` (single isomer, unassigned) [Compound 2-103, 9-ethyl-N-{(3S)-1-[(2S or 2R)-tetrahydrofuran-2-ylcarbonyl]pyrrolidin-3-yl}-8-[6-(trifluoromethyl)pyridin-3-yl]-9H-purin-6-amine]: 1.8 nM and over 10.
The matching figures for `CCC(=O)N1CC(Nc2ncnc3c2nc(-c2cnn(CC)c2C)n3C)C1` [Compound 2-45, 8-(1-ethyl-5-methyl-1H-pyrazol-4-yl)-9-methyl-N-(1-propanoylazetidin-3-yl)-9H-purin-6-amine]: 57 nM and over 10.
With `CCn1c(-c2ccc(C(F)(F)F)nc2)nc2c(N[C@H]3CCN(C(=O)C4CCOC4)C3)ncnc21` (single isomer, unassigned) [Compound 2-101, 9-ethyl-N-{(3S)-1-[(3R or 3S)-tetrahydrofuran-3-ylcarbonyl]pyrrolidin-3-yl}-8-[6-(trifluoromethyl)pyridin-3-yl]-9H-purin-6-amine], the IC50 on PI3K-delta was under 1 nM. Moreover, on PI3K-alpha, the “Selectivity versus PI3Kalpha” value is over 10.
Turning to `CCn1c(-c2cnc(C)nc2)nc2c(N[C@H]3C[C@H](C(=O)OC)N(c4ccccn4)C3)ncnc21` [Compound 4-12, methyl (4S)-4-{[9-ethyl-8-(2-methylpyrimidin-5-yl)-9H-purin-6-yl]amino}-1-pyridin-2-yl-D-prolinate], at PI3K-delta, the IC50 was 8.2 nM. Besides, the “Selectivity versus PI3Kalpha” value at PI3K-alpha was over 10.
On the same counts, the results for `CCn1c(-c2cnc(C)nc2)nc2c(N[C@H]3CCN(C(=O)[C@H]4CC[C@H](O)CC4)C3)ncnc21` [Compound 2-99, trans-4-{[(3S)-3-{[9-ethyl-8-(2-methylpyrimidin-5-yl)-9H-purin-6-yl]amino}pyrrolidin-1-yl]carbonyl}cyclohexanol] are 2.8 nM and over 10.
The matching figures for `CCn1c(-c2cnc(C)nc2)nc2c(NC3CN(C(C)C4CC4)CC34CC4)ncnc21` (stereo not shown) [Compound 10-2, N(S AND R)-[5-(1-(S AND R)-cyclopropylethyl)-5-azaspiro[2.4]hept-7-yl]-9-ethyl-8-(2-methylpyrimidin-5-yl)-9H-purin-6-amine]: 41 nM and over 10.
On the same counts, the results for `CCn1c(C(=O)N[C@@H](C)C2CC2)nc2c(N[C@H]3CCN(C(=O)C4CC4)C3)ncnc21` [Compound 6-12, 6-{[(3S)-1-(cyclopropylcarbonyl)pyrrolidin-3-yl]amino}-N-[(1S)-1-cyclopropylethyl]-9-ethyl-9H-purine-8-carboxamide] are 25 nM and over 10.
As to `CCn1c(-c2cnc(C)nc2)nc2c(NC3CN(C(=O)C4CC45CCCCC5)CC3C)ncnc21` (single isomer, unassigned) [Compound 2-88, 9-ethyl-8-(2-methylpyrimidin-5-yl)-N-[(3S,4R or 3R,4S)-4-methyl-1-((S and R)-spiro[2.5]oct-1-ylcarbonyl)pyrrolidin-3-yl]-9H-purin-6-amine], the IC50 at PI3K-delta was under 1 nM. Further, the “Selectivity versus PI3Kalpha” value on PI3K-alpha is listed as over 10.
The matching figures for `CCn1c(-c2ccc(C(F)(F)F)nc2)nc2c(N[C@H]3CCN(C(=O)OC(C)(C)C)C3)ncnc21` [Compound 1-22, tert-butyl (3S)-3-({9-ethyl-8-[6-(trifluoromethyl)pyridin-3-yl]-9H-purin-6-yl}amino)pyrrolidine-1-carboxylate]: under 1 nM and over 10.
On the same counts, the results for `CCn1c(C(F)F)nc2c(N[C@H]3CCN(C(=O)N4CCC4)C3)ncnc21` [Compound 7-27, N-[(3S)-1-(azetidin-1-ylcarbonyl)pyrrolidin-3-yl]-8-(difluoromethyl)-9-ethyl-9H-purin-6-amine] are 5.2 nM and over 10.
The matching figures for `CCn1c(-c2cnc(C)nc2)nc2c(N[C@H]3CCN(C(=O)C4NC(=O)C4(C)C)C3)ncnc21` (mixture of isomers) [Compound 2-67, (R and S)-4-{[(3S)-3-{[9-ethyl-8-(2-methylpyrimidin-5-yl)-9H-purin-6-yl]amino}pyrrolidin-1-yl]carbonyl}-3,3-dimethylazetidin-2-one]: 1.5 nM and over 10.
For `CCC(=O)N1CC[C@H](Nc2ncnc3c2nc(C(F)F)n3CC)C1` [Compound 7-13, 8-(difluoromethyl)-9-ethyl-N-[(3S)-1-propanoylpyrrolidin-3-yl]-9H-purin-6-amine], the IC50 on PI3K-delta was 32 nM. In addition, at PI3K-alpha, the “Selectivity versus PI3Kalpha” value is on record as over 10.
The matching figures for `CCn1c(-c2cnc(OC)c(C)c2)nc2c(N[C@H]3CCN(C(=O)c4cncn4C)C3)ncnc21` [Compound 3A-6, 9-ethyl-8-(6-methoxy-5-methylpyridin-3-yl)-N-{(3S)-1-[(1-methyl-1H-imidazol-5-yl)carbonyl]pyrrolidin-3-yl}-9H-purin-6-amine]: under 1 nM and over 10.
On the same counts, the results for `CCn1c(-c2cnc(C)nc2)nc2c(N[C@H]3CCN(C(=O)C4CN(C(C)C)C4)C3)ncnc21` [Compound 2-79, 9-ethyl-N-[(3S)-1-{[1-(1-methylethyl)azetidin-3-yl]carbonyl}pyrrolidin-3-yl]-8-(2-methylpyrimidin-5-yl)-9H-purin-6-amine] are 17 nM and over 10.
The matching figures for `CCn1c(-c2cnc(C)nc2)nc2c(N[C@H]3CCN(C(=O)c4ocnc4C)C3)ncnc21` [Compound 2-74, 9-ethyl-N-{(3S)-1-[(4-methyl-1,3-oxazol-5-yl)carbonyl]pyrrolidin-3-yl}-8-(2-methylpyrimidin-5-yl)-9H-purin-6-amine]: 3.1 nM and over 10.
Turning to `CCn1c(-c2cnc(C)nc2)nc2c(N[C@H]3CCN(C(=O)NC4CCCCC4)C3)ncnc21` [Compound 12-16, (3S)-N-cyclohexyl-3-{[9-ethyl-8-(2-methylpyrimidin-5-yl)-9H-purin-6-yl]amino}pyrrolidine-1-carboxamide], the IC50 on PI3K-delta worked out at 16 nM. Further, the “Selectivity versus PI3Kalpha” value on PI3K-alpha is on record as over 10.

The values above are taken from patent US9938281B2 (Merck Sharp & Dohme Corp., priority 2012, dated 2018).
